Results as given in US6624182B1, “Hydroxyphenylvinylthiazoles” (Ciba Specialty Chemicals Corporation, priority 1999, dated 2003).

Legend:
Test in all cases: Determination of the minimum inhibitory concentration (MIC value) in microtitre plates
S. aureus = format: cell-based; conditions: optical density at 620 nm, 48 hours at 37° C., MIC = ≦20% growth; tested at 100; 10 and 1 ppm (approximate values); (2), (3), (4) at 120; 60; 30; 15; 7.5; 3.75 ppm
From the text: (§1) Determination of the Minimum Inhibitory Concentration (MIC Value) in Microtitre Plates Nutrient Medium Casein/soybean flour/peptone bouillon for the preparation of preliminary cultures of the test bacteria and yeast. Mycological slant agar for the preliminary culture of moulds Examples of Test Microbes: Bacteria: Staphylococcus hominis DMS 20328 Procedure: The test substances are pre-dissolved in dimethyl sulfoxide (DMSO) and tested in a series of dilutions of 1:2. Bacteria and yeast are cultured overnight in CASO bouillon; the mould is cultured on myco-logical slant agar and sponged off with 10 ml of 0.85% sodium chloride solution (+0.1% Triton X-100). All the test microbes are adjusted to a germ count of 1−5×10^6 KBE/ml using 0.85% sodium chloride solution. The test substances are pre-pipetted into microtitre plates in an amount of 8 μl per well. Pre-diluted microbe suspensions are diluted 1:100 in CASO bouillon (bacteria and yeast) or Sabouraud 2% glucose bouillon (mould) and added to the test substances in an amount of 192 μl per well. The test batches are incubated for 48 hours at 37° C. (bacteria and yeast) or for 5 days at 28° C. (mould). After incubation, the growth is determined by means of the clouding of the test batches (optical density) at 620 nm in a microplate reader. The concentration of substance at which (compared with the growth control) a marked inhibition of growth (≦20% growth) of the test microbes can be observed is given as the minimum inhibitory concentration (MIC value). One microtitre plate is used per test microbe and substance concentration. All substances are tested in duplicate.

E. coli = format: cell-based, Escherichia coli NCTC 8196; conditions: optical density at 620 nm, 48 hours at 37° C., MIC = ≦20% growth; tested at 100; 10 and 1 ppm (approximate values); (2), (3), (4) at 120; 60; 30; 15; 7.5; 3.75 ppm
Method: as §1, with “Escherichia coli NCTC 8196” for “Staphylococcus hominis DMS 20328”

P. aeruginosa = format: cell-based, Pseudomonas aeruginosa CIP A-22; conditions: optical density at 620 nm, 48 hours at 37° C., MIC = ≦20% growth; tested at 100; 10 and 1 ppm (approximate values); (2), (3), (4) at 120; 60; 30; 15; 7.5; 3.75 ppm
Method: as §1, with “Pseudomonas aeruginosa CIP A-22” for “Staphylococcus hominis DMS 20328”

C. albicans = format: cell-based, Candida albicans ATCC 10231; conditions: optical density at 620 nm, 48 hours at 37° C., MIC = ≦20% growth; tested at 100; 10 and 1 ppm (approximate values); (2), (3), (4) at 120; 60; 30; 15; 7.5; 3.75 ppm
Method: as §1, with “Yeast: Candida albicans ATCC 10231” for “Bacteria: Staphylococcus hominis DMS 20328”

A. niger = format: cell-based, Aspergillus niger ATCC 6275; conditions: optical density at 620 nm, 5 days at 28° C., MIC = ≦20% growth; tested at 100; 10 and 1 ppm (approximate values); (2), (3), (4) at 120; 60; 30; 15; 7.5; 3.75 ppm
Method: as §1, with “Mould: Aspergillus niger ATCC 6275” for “Bacteria: Staphylococcus hominis DMS 20328”

Oc1cccc(/C=C/c2nc(-c3ccc(F)cc3)cs2)c1 [Compound of formula (5)]
>100 ppm: MIC values in ppm S. aureus (S. aureus) | MIC values in ppm E. coli (E. coli) | MIC values in ppm P. aeruginosa (P. aeruginosa) | MIC values in ppm C. albicans (C. albicans) | MIC values in ppm A. niger (A. niger)

COc1ccc(/C=C/c2nc(-c3ccc(F)cc3)cs2)cc1O [Compound of formula (6)]
>100 ppm: MIC values in ppm S. aureus (S. aureus) | MIC values in ppm E. coli (E. coli) | MIC values in ppm P. aeruginosa (P. aeruginosa) | MIC values in ppm C. albicans (C. albicans) | MIC values in ppm A. niger (A. niger)

CCOc1cc(/C=C/c2nc(-c3ccc(F)cc3)cs2)ccc1O [Compound of formula (7)]
>100 ppm: MIC values in ppm S. aureus (S. aureus) | MIC values in ppm E. coli (E. coli) | MIC values in ppm P. aeruginosa (P. aeruginosa) | MIC values in ppm C. albicans (C. albicans) | MIC values in ppm A. niger (A. niger)

COc1cc(/C=C/c2nc(-c3ccc(F)cc3)cs2)ccc1O [Compound of formula (8)]
>100 ppm: MIC values in ppm S. aureus (S. aureus) | MIC values in ppm E. coli (E. coli) | MIC values in ppm P. aeruginosa (P. aeruginosa) | MIC values in ppm C. albicans (C. albicans) | MIC values in ppm A. niger (A. niger)

COc1ccc(/C=C/c2nc(-c3ccc(F)cc3)cs2)c(O)c1 [Compound of formula (9)]
>100 ppm: MIC values in ppm S. aureus (S. aureus) | MIC values in ppm E. coli (E. coli) | MIC values in ppm P. aeruginosa (P. aeruginosa) | MIC values in ppm C. albicans (C. albicans) | MIC values in ppm A. niger (A. niger)

Oc1ccccc1/C=C/c1nc(-c2ccc(F)cc2)cs1 [Compound of formula (10)]
>100 ppm: MIC values in ppm S. aureus (S. aureus) | MIC values in ppm E. coli (E. coli) | MIC values in ppm P. aeruginosa (P. aeruginosa) | MIC values in ppm C. albicans (C. albicans) | MIC values in ppm A. niger (A. niger)

COc1cc(/C=C/c2nc(-c3ccc(F)cc3)cs2)cc(O)c1OC [Compound of formula (11)]
>100 ppm: MIC values in ppm S. aureus (S. aureus) | MIC values in ppm E. coli (E. coli) | MIC values in ppm P. aeruginosa (P. aeruginosa) | MIC values in ppm C. albicans (C. albicans) | MIC values in ppm A. niger (A. niger)

Cc1cc(/C=C/c2nc(-c3ccc(F)cc3)cs2)cc(C)c1O [Compound of formula (12)]
>100 ppm: MIC values in ppm S. aureus (S. aureus) | MIC values in ppm E. coli (E. coli) | MIC values in ppm P. aeruginosa (P. aeruginosa) | MIC values in ppm C. albicans (C. albicans) | MIC values in ppm A. niger (A. niger)

Cc1cccc(/C=C/c2nc(-c3ccc(F)cc3)cs2)c1O [Compound of formula (13)]
>100 ppm: MIC values in ppm S. aureus (S. aureus) | MIC values in ppm E. coli (E. coli) | MIC values in ppm P. aeruginosa (P. aeruginosa) | MIC values in ppm C. albicans (C. albicans) | MIC values in ppm A. niger (A. niger)

Oc1cc(OCc2ccccc2)ccc1/C=C/c1nc(-c2ccc(F)cc2)cs1 [Compound of formula (14)]
>100 ppm: MIC values in ppm S. aureus (S. aureus) | MIC values in ppm E. coli (E. coli) | MIC values in ppm P. aeruginosa (P. aeruginosa) | MIC values in ppm C. albicans (C. albicans) | MIC values in ppm A. niger (A. niger)

COc1cc(O)ccc1/C=C/c1nc(-c2ccc(F)cc2)cs1 [Compound of formula (15)]
>100 ppm: MIC values in ppm S. aureus (S. aureus) | MIC values in ppm E. coli (E. coli) | MIC values in ppm P. aeruginosa (P. aeruginosa) | MIC values in ppm C. albicans (C. albicans) | MIC values in ppm A. niger (A. niger)

CC(C)(C)c1csc(/C=C/c2ccc(O)cc2)n1 [Compound of formula (16)]
>100 ppm: MIC values in ppm S. aureus (S. aureus) | MIC values in ppm E. coli (E. coli) | MIC values in ppm P. aeruginosa (P. aeruginosa) | MIC values in ppm C. albicans (C. albicans) | MIC values in ppm A. niger (A. niger)

CC(C)(C)c1csc(/C=C/c2cccc(O)c2)n1 [Compound of formula (17)]
>100 ppm: MIC values in ppm S. aureus (S. aureus) | MIC values in ppm E. coli (E. coli) | MIC values in ppm P. aeruginosa (P. aeruginosa) | MIC values in ppm C. albicans (C. albicans) | MIC values in ppm A. niger (A. niger)

COc1ccc(/C=C/c2nc(C(C)(C)C)cs2)cc1O [Compound of formula (18)]
>100 ppm: MIC values in ppm S. aureus (S. aureus) | MIC values in ppm E. coli (E. coli) | MIC values in ppm P. aeruginosa (P. aeruginosa) | MIC values in ppm C. albicans (C. albicans) | MIC values in ppm A. niger (A. niger)
